Where a name gives a salt, the structure may show the parent alone. Square brackets hold non-standard residues; d marks the D form. Peptide text beside a SMILES is read from it. * marks the point of attachment. X1 = C[N+](C)(C)[C@@H](Cc1ccccc1)C(=O)*; X2 = C#CCN(C)[C@@H](Cc1ccccc1)C(=O)*; NMeF = CN[C@@H](Cc1ccccc1)C(=O)O; Cha = N[C@@H](CC1CCCCC1)C(=O)O; dOrn = NCCC[C@@H](N)C(=O)O

One assay deals with T1, motilin receptor (Oryctolagus cuniculus, UniProt G1T803).
T1 construct: from tissue; host or cells: rabbit antral smooth muscle membranes
Kind of assay: Determination of motilin receptor binding affinity (displacement of [125I-Tyr7, Nle13]motilin(porcine)). More on the design: species or system rabbit. The note with it: negative logarithm of the concentration displacing 50% of [125I-Tyr7, Nle13]motilin(porcine) from rabbit antral smooth muscle membranes; read-out: pIC50 (converted). How it is done:
The motilin receptor binding affinity of the peptides of this invention was determined by using the general procedure of Bormans, Peelers and Vantrappen, Regul. […] Fitting was performed using the iterative least-squares procedure of the SAS-software package (SAS Institute, Inc., Cary, N.C., USA).

The target of assay [1] is segments of rabbit duodenum (Oryctolagus cuniculus, UniProt G1T803). Description: Rabbit duodenal smooth muscle strip tissue bath assay. The assay is classed as cell-based. The note with it: negative logarithm of the dose giving 50% of the maximal response to motilin; isotonic contraction of rabbit duodenum segments. As for the experimental part: The contractile response of segments of rabbit duodenum was determined isotonically in the tissue bath according to the procedure of Depoortere et at., J. Gastrointestinal Motility, 1, 150-159 (1989). The experimental protocol consisted of an equilibration period of 1 hour; a challenge with 10^-4 M acetylcholine followed by a wash-out period; a cumulative dose-response curve of a compound with, at the end, the addition of 10^-7 M motilin; and finally 10^-4 M acetylcholine. If the final response to 10^-4 M acetylcholine differed by more than 5% from the initial response, the results were discarded. The compounds were tested in the concentration range 10^-11 to 10^-4 M. The point corresponding to 50% of the maximal response to motilin (Emax) was determined by fitting the equation E=Emax (1+EC50 /[L]) through the data points. […] The dose giving 50% of the response is expressed using its negative logarithm (pEC50).
Sequence of segments of rabbit duodenum (G1T803 1-400): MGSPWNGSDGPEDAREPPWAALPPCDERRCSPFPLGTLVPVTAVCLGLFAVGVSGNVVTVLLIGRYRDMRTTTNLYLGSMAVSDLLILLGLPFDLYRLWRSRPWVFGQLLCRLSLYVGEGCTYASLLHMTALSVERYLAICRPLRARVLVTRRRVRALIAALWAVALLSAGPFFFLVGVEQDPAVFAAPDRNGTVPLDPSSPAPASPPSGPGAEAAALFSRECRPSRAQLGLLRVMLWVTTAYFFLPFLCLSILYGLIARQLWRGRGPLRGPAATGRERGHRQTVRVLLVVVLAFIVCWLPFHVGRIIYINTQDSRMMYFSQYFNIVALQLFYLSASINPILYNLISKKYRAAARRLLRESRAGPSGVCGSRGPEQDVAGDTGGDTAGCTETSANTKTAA

T1 sequence (G1T803 1-400): as above

For orientation: pEC50 means −log10 of the EC50, conventionally taken in molar units. Higher therefore signals a small EC50. With `CC[C@H](C)[C@H](NC(=O)[C@@H]1CCCN1C(=O)[C@@H](NC(=O)[C@@H](N)Cc1ccccc1)C(C)C)C(=O)N[C@@H](Cc1ccccc1)C(=O)N[C@H](C(=O)N[C@@H](Cc1ccc(O)cc1)C(=O)NCC(=O)N[C@@H](CCC(=O)O)C(=O)N[C@@H](CC(C)C)C(=O)N[C@@H](CCC(N)=O)C(=O)N[C@H](CCC(N)=O)C(=O)N[C@@H](CC(C)C)C(=O)N[C@@H](CCC(N)=O)C(=O)O)[C@@H](C)O` [[D-Gln^12, Leu^13]pMOT(1-14)] (H-FVPIFTYGELQ[dQ]LQ-OH), the IC50 on motilin receptor is 5.62 nM. Besides, the pEC50 in assay [1] came out at 7.06.

On to `CC[C@H](C)[C@H](NC(=O)[C@@H]1CCCN1C(=O)[C@@H](NC(=O)[C@H](Cc1ccccc1)[N+](C)(C)C)C(C)C)C(=O)N[C@@H](Cc1ccccc1)C(=O)N[C@H](C(=O)N[C@@H](Cc1ccc(O)cc1)C(=O)NCC(=O)N[C@@H](CCC(=O)O)C(=O)N[C@@H](CC(C)C)C(=O)N[C@@H](CCC(N)=O)C(=O)N[C@@H](CCCNC(=N)N)C(=O)N[C@@H](CC(C)C)C(=O)N[C@@H](CCC(N)=O)C(=O)O)[C@@H](C)O` [[Me3 N^+ Phe^1, Leu^13]pMOT(1-14), [1-N,N,N-Trimethylphenylalanine, 13-leucine]motilin-(1-14)-peptide (Porcine) Bis-trifluoroacetate Salt] (X1-VPIFTYGELQRLQ-OH), for which the IC50 at motilin receptor was 3.55 nM. For the same compound, in assay [1], the pEC50 is on record as 7.69.

Regarding `C#CCN(C)[C@@H](Cc1ccccc1)C(=O)N[C@H](C(=O)N1CCC[C@H]1C(=O)N[C@H](C(=O)N[C@@H](Cc1ccccc1)C(=O)N[C@H](C(=O)N[C@@H](Cc1ccc(O)cc1)C(=O)NCC(=O)N[C@@H](CCC(=O)O)C(=O)N[C@@H](CC(C)C)C(=O)N[C@@H](CCC(N)=O)C(=O)N[C@@H](CCCNC(=N)N)C(=O)N[C@@H](CC(C)C)C(=O)N[C@@H](CCC(N)=O)C(N)=O)[C@@H](C)O)[C@@H](C)CC)C(C)C` (X2-VPIFTYGELQRLQ-NH2), the IC50 at motilin receptor was 2 nM. Moreover, the pEC50 in assay [1] came to 7.57.

Regarding `CC[C@H](C)[C@H](NC(=O)[C@@H]1CCCN1C(=O)[C@@H](NC(=O)[C@@H](N)Cc1ccccc1)C(C)C)C(=O)N[C@@H](CC1CCCCC1)C(=O)N[C@H](C(=O)N[C@@H](Cc1ccc(O)cc1)C(=O)NCC(=O)N[C@@H](CCC(=O)O)C(=O)N[C@@H](CC(C)C)C(=O)N[C@@H](CCC(N)=O)C(=O)N[C@H](CCCNC(=N)N)C(=O)N[C@@H](CC(C)C)C(=O)N[C@@H](CCC(N)=O)C(N)=O)[C@@H](C)O` [H-Phe-Val-Pro-Ile-Cha-Thr-Tyr-Gly-Glu-Leu-Gln-D-Arg-Leu-Gln-NH2] (H-FVPI[Cha]TYGELQ[dR]LQ-NH2), at motilin receptor, the IC50 was 6.76 nM. The compound also returned a pEC50 in assay [1] of 7.30.

For `CC[C@H](C)[C@H](NC(=O)[C@@H]1CCCN1C(=O)[C@@H](NC(=O)[C@H](Cc1ccccc1)NC)C(C)C)C(=O)N[C@@H](Cc1ccccc1)C(=O)N[C@H](C(=O)N[C@@H](Cc1ccc(O)cc1)C(=O)NCC(=O)N[C@@H](CCC(=O)O)C(=O)N[C@@H](CC(C)C)C(=O)N[C@@H](CCC(N)=O)C(=O)N[C@H](CCCNC(=N)N)C(=O)N[C@@H](CC(C)C)C(=O)N[C@@H](CCC(N)=O)C(N)=O)[C@@H](C)O` (H-[NMeF]VPIFTYGELQ[dR]LQ-NH2), the IC50 at motilin receptor is 1.02 nM. Moreover, the pEC50 in assay [1] is listed as 7.95.

With `CC[C@H](C)[C@H](NC(=O)[C@@H]1CCCN1C(=O)[C@@H](NC(=O)[C@@H](N)Cc1ccccc1)C(C)C)C(=O)N[C@@H](Cc1ccccc1)C(=O)N[C@H](C(=O)N[C@@H](Cc1ccc(O)cc1)C(=O)NCC(=O)N[C@@H](CCC(=O)O)C(=O)N[C@@H](CC(C)C)C(=O)N[C@@H](CCC(N)=O)C(=O)N[C@H](C)C(=O)N[C@@H](CC(C)C)C(=O)N[C@@H](CCC(N)=O)C(=O)O)[C@@H](C)O` [[D-Ala^12, Leu^13]pMOT(1-14)] (H-FVPIFTYGELQ[dA]LQ-OH), the IC50 on motilin receptor is 8.91 nM. Also, in assay [1], the pEC50 worked out at 7.29.

With `CC[C@H](C)[C@H](NC(=O)[C@H](C)NC(=O)[C@@H](NC(=O)[C@H](Cc1ccccc1)[N+](C)(C)C)C(C)C)C(=O)N[C@@H](Cc1ccccc1)C(=O)N[C@H](C(=O)N[C@@H](Cc1ccc(O)cc1)C(=O)NCC(=O)N[C@@H](CCC(=O)O)C(=O)N[C@@H](CC(C)C)C(=O)N[C@@H](CCC(N)=O)C(=O)N[C@H](CCCNC(=N)N)C(=O)N[C@@H](CC(C)C)C(=O)N[C@H](CCC(N)=O)C(N)=O)[C@@H](C)O` (X1-VAIFTYGELQ[dR]L[dQ]-NH2), the IC50 at motilin receptor was 1.41 nM. In assay [1], this compound yielded a pEC50 of 7.20.

Turning to `CC[C@H](C)[C@H](NC(=O)[C@@H]1CCCN1C(=O)[C@@H](NC(=O)[C@H](Cc1ccccc1)[N+](C)(C)C)C(C)C)C(=O)N[C@@H](Cc1ccccc1)C(=O)N[C@H](C(=O)N[C@@H](Cc1ccc(O)cc1)C(=O)NCC(=O)N[C@@H](CCC(=O)O)C(=O)N[C@@H](CC(C)C)C(=O)N[C@@H](CCC(N)=O)C(=O)N[C@@H](CCCNC(=N)N)C(=O)N[C@@H](CC(C)C)C(=O)N[C@@H](CCC(N)=O)C(N)=O)[C@@H](C)O` (X1-VPIFTYGELQRLQ-NH2), at motilin receptor, the IC50 is 2.69 nM. For the same compound, the pEC50 in assay [1] came out at 7.48.

As to `CC[C@H](C)[C@H](NC(=O)[C@@H]1CCCN1C(=O)[C@@H](NC(=O)[C@@H](N)Cc1ccccc1)C(C)C)C(=O)N[C@@H](Cc1ccccc1)C(=O)N[C@H](C(=O)N[C@@H](Cc1ccc(O)cc1)C(=O)NCC(=O)N[C@@H](CCC(=O)O)C(=O)N[C@@H](CC(C)C)C(=O)N[C@@H](CCC(N)=O)C(=O)N[C@H](CCCNC(=N)N)C(=O)N[C@@H](CC(C)C)C(=O)N[C@@H](CCC(N)=O)C(=O)O)[C@@H](C)O` [[D-Arg^13, Leu^13]pMOT(1-14), [12-D-Arginine, 13-leucine]motilin-(1-14)-peptide (Porcine) Bis-trifiuoroacetate Salt] (H-FVPIFTYGELQ[dR]LQ-OH), the IC50 at motilin receptor was 0.977 nM. This compound registered a pEC50 in assay [1] of 7.74.

As for `CC[C@H](C)[C@H](NC(=O)[C@@H]1CCCN1C(=O)[C@@H](NC(=O)[C@@H](N)Cc1ccccc1)C(C)C)C(=O)N[C@@H](Cc1ccccc1)C(=O)N[C@H](C(=O)N[C@@H](Cc1ccc(O)cc1)C(=O)NCC(=O)N[C@@H](CCC(=O)O)C(=O)N[C@@H](CC(C)C)C(=O)N[C@@H](CCC(N)=O)C(=O)N[C@H](CCCNC(=N)N)C(=O)N[C@@H](CC(C)C)C(=O)N[C@@H](CCC(N)=O)C(=O)N[C@@H](CCC(=O)O)C(=O)N[C@@H](CCCCN)C(=O)N[C@@H](CCC(=O)O)C(=O)N[C@@H](CCCNC(=N)N)C(=O)N[C@@H](CC(N)=O)C(=O)N[C@@H](CCCCN)C(=O)NCC(=O)N[C@@H](CCC(N)=O)C(=O)O)[C@@H](C)O` [[D-Arg^12, Leu^13]pMOT(1-22)], on motilin receptor, the IC50 was 1.66 nM. Further, the pEC50 in assay [1] was 7.67.

Turning to `CC[C@H](C)[C@H](NC(=O)[C@@H]1CCCN1C(=O)[C@@H](NC(=O)[C@@H](N)Cc1ccccc1)C(C)C)C(=O)N[C@@H](Cc1ccccc1)C(=O)N[C@H](C(=O)N[C@@H](Cc1ccc(O)cc1)C(=O)NCC(=O)N[C@@H](CCC(=O)O)C(=O)N[C@@H](CC(C)C)C(=O)N[C@@H](CCC(N)=O)C(=O)N[C@H](CCCN)C(=O)N[C@@H](CC(C)C)C(=O)N[C@@H](CCC(N)=O)C(=O)O)[C@@H](C)O` [[D-Orn^12, Leu^13]pMOT(1-14)] (H-FVPIFTYGELQ[dOrn]LQ-OH), the IC50 at motilin receptor is 4.27 nM. In addition, in assay [1], the pEC50 came to 6.83.

(Values after patent US5422341A, “Motilin-like polypeptides with gastrointestinal motor stimulating activity” (Ohmeda Pharmaceutical Products Division Inc., priority 1993, dated 1995).)
